pIC50: −log10 of the molar value. Where two headings read alike, the source gives them in different places.
Tests used:
Recombinant human BACE-1 = target: T1, Recombinant human BACE-1 (Homo sapiens, UniProt P56817); assay: Assay of BACE-1 inhibiting activity; format: biochemical; settings: Recombinant human BACE-1 7.4 nmol/L, substrate peptide 18 nmol/L, pH 5.0, 30° C., 3.5 hours; read-out: IC50 value (50% inhibitory concentration against the enzymatic activity)
T1 construct: purchased R&D Systems
Protocol: 48.5 μL of substrate peptide solution (Biotin-XSEVNLDAEFRHDSGC-Eu: X=ε-amino-n-capronic acid, Eu=Europium cryptate) was added to each well of 96-hole half-area plate (a black plate: Costar), and after addition of 0.5 μl of the compound of the present invention (DMSO solution) and 1 μl of Recombinant human BACE-1 (R&D Systems), the reaction mixture was incubated at 30° C. for 3.5 hours. The substrate peptide was synthesized by reacting Cryptate TBPCOOH mono SMP (CIS bio international) with Biotin-XSEVNLDAEFRHDSGC (Peptide Institute, Inc.). The final concentrations of the substrate peptide and Recombinant human BACE-1 were adjusted to 18 nmol/L and 7.4 nmol/L, respectively, and the reaction was performed in sodium acetate buffer (50 mmol/L sodium acetate, pH 5.0, 0.008% Triton X-100).
After the incubation for reaction, 50 μl of 8.0 μg/ml Streptavidin-XL665 (CIS bio international) dissolved in phosphate buffer (150 mmol/L K2HPO4—KH2PO4, pH 7:0, 0.008% Triton X-100, 0.8 mol/L KF) was added to each well and left stand at 30° C. for 45 minutes. After then, fluorescence intensity was measured (excitation wavelength: 320 nm, measuring wavelength: 620 nm and 665 nm) using Wallac 1420 multilabel counter (Perkin Elmer life sciences). Enzymatic activity was determined from counting ratio of each wavelength (10,000×Count 665/Count 620) and 50% inhibitory concentration against the enzymatic activity (IC50) was calculated.

CYP3A4 = target: T2, CYP3A4 (Homo sapiens, UniProt P08684); assay: CYP3A4 fluorescent MBI test; format: in vitro ADME; settings: substrate 7-BFC; pre-reaction time 0 or 30 minutes; compound 0.625-20 μmol/L
T2 construct: host or cells: Escherichia coli (printed 'Escherichia cob')
Protocol: The CYP3A4 fluorescent MBI test is a test of investigating enhancement of CYP3A4 inhibition of a compound by a metabolism reaction. 7-benzyloxytrifluoromethylcoumarin (7-BFC) is debenzylated by the CYP3A4 enzyme (enzyme expressed in Escherichia cob) and 7-hydroxytrifluoromethylcoumarin (7-HFC) is produced as a fluorescing metabolite. The test is performed using 7-HFC production reaction as an index.
The reaction conditions are as follows: substrate, 5.6 […], 7-BFC; pre-reaction time, 0 or 30 minutes; reaction time, 15 minutes; reaction temperature, 25° C. […]
An enzyme in a K-Pi buffer (pH 7.4) and a compound of the present invention solution as a pre-reaction solution were added to a 96-well plate at the composition of the pre-reaction. […] Fluorescent values of 7-HFC as a metabolite were measured in each index reaction plate with a fluorescent plate reader (Ex=420 nm, Em=535 nm).
The sample adding DMSO to a reaction system instead of compound of the present invention solution is adopted as a control (100%) because DMSO is used as a solvent to dissolve a compound of the present invention. Remaining activity (%) was calculated at each concentration of the compound of the present invention added as the solution, and IC50 was calculated by reverse-presumption by a logistic model using a concentration and an inhibition rate. […]

[1] = Solubility test (turbidity, JP-I, JP-II); format: physicochemical; settings: kinetic from dmso stock, 2% DMSO, turbidity after 4 hours
Protocol: A 2-fold dilution series (12 points) of a 10 mM solution of a compound of the present invention in DMSO was added to a medium (JP-I, JP-II) (2%), and solubility was assessed by 3 stages (High; >40 μM, Medium; 3-40 μM, Low; <3 μM) from a turbidity after 4 hours.

[2] = Metabolism stability test; format: in vitro ADME; settings: pooled human liver microsomes 0.5 mg protein/mL, 1 mmol/L NADPH, 37° C., 30 minutes; 0 minute = 100%
Protocol: Using a commercially available pooled human liver microsomes, a compound of the present invention is reacted for a constant time, a remaining rate is calculated by comparing a reacted sample and an unreacted sample, thereby, a degree of metabolism in liver was assessed.
A reaction was performed (oxidative reaction) at 37° C. for 0 minute or 30 minutes in the presence of 1 mmol/L NADPH in 0.2 mL of a buffer (50 mmol/L Tris-HCl pH 7.4, 150 mmol/L potassium chloride, 10 mmol/L magnesium chloride) containing 0.5 mg protein/mL of human liver microsomes. After the reaction, 50 μL of the reaction solution was added to 100 μL of a methanol/acetonitrile=1/1 (v/v), mixed and centrifuged at 3000 rpm for 15 minutes. The compound of the present invention in the supernatant was quantified by LC/MS/MS, and a remaining amount of the compound of the present invention after the reaction was calculated, letting a compound amount at 0 minute reaction time to be 100%.

[3] = BA test (oral absorption); format: in vivo, mouse or SD rat; settings: plasma; from AUCs of oral (1 to 30 mg/kg) and intravenous (0.5 to 10 mg/kg) administration groups
Protocol: Materials and Methods for Studies on Oral Absorption (1) Animal: mouse or SD rat (2) Breeding conditions: mouse or SD rat is allowed free access to the sterilized tap water and the solid food. […] (6) Evaluation items: blood was collected at the scheduled time, and the plasma concentration of the compound of the present invention was measured by LC/MS/MS (7) Statistical analysis: regarding the transition of the plasma concentration of the compound of the present invention, the area under the plasma concentration-time curve (AUC) was calculated by non-linear least squares program WinNonlin (Registered trademark), and the bioavailability (BA) of the compound of the present invention was calculated from the AUCs of the oral administration group and intravenous administration group

T1 sequence (P56817 46-501): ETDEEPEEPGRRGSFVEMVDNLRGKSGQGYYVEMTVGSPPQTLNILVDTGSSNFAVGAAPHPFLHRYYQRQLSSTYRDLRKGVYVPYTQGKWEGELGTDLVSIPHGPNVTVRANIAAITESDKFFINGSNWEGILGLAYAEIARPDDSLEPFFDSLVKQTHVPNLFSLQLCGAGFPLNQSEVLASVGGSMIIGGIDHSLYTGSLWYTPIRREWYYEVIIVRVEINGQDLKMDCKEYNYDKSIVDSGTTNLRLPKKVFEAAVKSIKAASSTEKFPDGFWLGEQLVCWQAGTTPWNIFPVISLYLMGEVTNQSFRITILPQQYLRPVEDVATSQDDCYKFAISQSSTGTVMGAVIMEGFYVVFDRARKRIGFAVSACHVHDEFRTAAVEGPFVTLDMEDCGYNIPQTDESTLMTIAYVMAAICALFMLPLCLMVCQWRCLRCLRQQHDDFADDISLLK
T2 sequence (P08684 whole entry): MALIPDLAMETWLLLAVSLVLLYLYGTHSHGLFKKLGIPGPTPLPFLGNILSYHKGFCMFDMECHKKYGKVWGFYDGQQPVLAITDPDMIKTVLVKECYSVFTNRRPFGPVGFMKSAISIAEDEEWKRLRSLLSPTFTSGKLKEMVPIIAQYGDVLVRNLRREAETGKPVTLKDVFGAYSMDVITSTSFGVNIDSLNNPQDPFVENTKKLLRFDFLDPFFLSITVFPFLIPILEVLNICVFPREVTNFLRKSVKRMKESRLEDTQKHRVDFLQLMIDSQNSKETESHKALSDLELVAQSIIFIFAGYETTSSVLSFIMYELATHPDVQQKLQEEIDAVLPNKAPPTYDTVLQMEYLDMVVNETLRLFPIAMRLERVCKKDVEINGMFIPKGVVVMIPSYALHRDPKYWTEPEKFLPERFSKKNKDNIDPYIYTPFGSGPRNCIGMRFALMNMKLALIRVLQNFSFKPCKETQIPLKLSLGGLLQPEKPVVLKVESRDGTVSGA

| SMILES | pIC50 (Recombinant human BACE-1) | also measured |
| --- | --- | --- |
| C[C@@H]1C[C@@](C)(c2cc(NC(=O)c3cnccn3)ccn2)N=C(N)S1 [Compound I-294] | ≥ 6.00 | – |
| C[C@@]1(c2cc(NC(=O)c3ccc(C#N)cn3)ccn2)CCSC(N)=N1 [Compound I-1] | ≥ 6.00 | CYP3A4 MBI: difference between IC50 values with and without preincubation, positive (+) / negative (−) (CYP3A4): (−) (When the difference was 3 μM or less, this was defined as negative(−)) |
| COc1cnc(C(=O)Nc2ccnc([C@]3(C)C=CSC(N)=N3)c2)cn1 [Compound I-47] | – | solubility at 4 h ([1]; pH 1.2, simulated gastric fluid, medium JP-I, read-out: Solubility (3 stages) in JP-I): > 40 µM; solubility at 4 h ([1]; pH 6.8, fassgf or other biorelevant, medium JP-II, read-out: Solubility (3 stages) in JP-II): > 40 µM |
| C[C@@]1(c2cc(NC(=O)c3ccccn3)ccn2)CCSC(N)=N1 [Compound I-272] | ≥ 6.00 | – |
| CC(F)(F)Oc1ccc(C(=O)Nc2ccnc([C@]3(C)C=CSC(N)=N3)c2)nc1 [Compound I-24] | – | remaining amount of the compound after the reaction [2]: 98% |
| C#Cc1ccc(C(=O)Nc2ccnc([C@]3(C)CCSC(N)=N3)c2)nc1 [Compound I-8] | 7.11 | – |
| CC#Cc1ccc(C(=O)Nc2ccnc([C@]3(C)CCSC(N)=N3)c2)nc1 [Compound I-9] | ≥ 6.00 | – |
| Cc1cnc(C(=O)Nc2ccnc([C@]3(C)C[C@@H](C)SC(N)=N3)c2)cn1 [Compound I-293] | ≥ 6.00 | – |
| C[C@@H]1C[C@@](C)(c2cc(NC(=O)c3ccccn3)ccn2)N=C(N)S1 [Compound I-273] | ≥ 6.00 | – |

Second part, led by results:

| pIC50 (Recombinant human BACE-1) | SMILES | also measured |
| --- | --- | --- |
| 7.48 | C[C@@]1(c2cc(NC(=O)c3cnc(OC(F)F)cn3)ccn2)C=CSC(N)=N1 [Compound I-2] | – |
| 7.32 | C=C1C[C@@](C)(c2cc(NC(=O)c3ccc(C(F)F)cn3)ccn2)N=C(N)S1 [Compound I-11] | – |
| ≥ 6.00 | C[C@@]1(c2cc(NC(=O)c3ccc(C#N)cn3)ccn2)C=CSC(N)=N1.O=C(O)C(O)C(O)C(=O)O [Compound I-10] | bioavailability [3]: 96.7% |
| ≥ 6.00 | NC1=N[C@](CF)(c2cc(NC(=O)c3cnc(C(F)F)cn3)ccn2)CCS1 [Compound I-246] | – |

Source: patent US20140235626A1, “PYRIDINE DERIVATIVES AND A PHARMACEUTICAL COMPOSITION FOR INHIBITING BACE1 CONTAINING THEM” (SHIONOGI & CO., LTD., priority 2011, published 2014)
